One assay relates to Staphylococcus aureus. The assay is described as follows: Inhibitors of Bacterial Quorum Sensing Structure Activity Relationship (SAR) Analysis: Dose Response Assay. [Related pubchem assays: 700, 527 ]. Format: functional, organism-based.
In assay [1] the target is T1, Neuropeptides B/W receptor type 1 (Homo sapiens, UniProt P48145).
T1 sequence (P48145 whole entry): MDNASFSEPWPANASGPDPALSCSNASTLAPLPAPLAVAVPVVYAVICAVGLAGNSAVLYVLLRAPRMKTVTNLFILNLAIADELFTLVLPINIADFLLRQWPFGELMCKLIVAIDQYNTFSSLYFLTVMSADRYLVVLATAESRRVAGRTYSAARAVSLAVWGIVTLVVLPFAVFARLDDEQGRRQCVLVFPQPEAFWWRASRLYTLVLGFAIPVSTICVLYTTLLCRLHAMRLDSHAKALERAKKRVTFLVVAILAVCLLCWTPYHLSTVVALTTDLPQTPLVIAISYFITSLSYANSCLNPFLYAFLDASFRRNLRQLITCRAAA
The assay is described as follows: Fluorescence-based dose response cell-based high throughput screening assay to identify antagonists of the G-protein coupled receptor 7 (GPR7). [Related pubchem assays: 1952 (Screening assay (GPR7 antagonists).), 1880 (Summary AID.)]. Format: functional.

In assay [2] the target is Melanin-concentrating hormone receptor 1 (Homo sapiens, UniProt Q99705). The assay can be described thus: Fluorescence-based counterscreen for antagonists of the G-protein coupled receptor 7 (GPR7): cell-based high throughput dose response assay to identify antagonists of the melanin-concentrating hormone receptor 1 (MCHR1). Format: functional.
In assay [3] the target is T2, Short transient receptor potential channel 4 (Mus musculus, UniProt Q9QUQ5).
T2 sequence (Q9QUQ5 whole entry): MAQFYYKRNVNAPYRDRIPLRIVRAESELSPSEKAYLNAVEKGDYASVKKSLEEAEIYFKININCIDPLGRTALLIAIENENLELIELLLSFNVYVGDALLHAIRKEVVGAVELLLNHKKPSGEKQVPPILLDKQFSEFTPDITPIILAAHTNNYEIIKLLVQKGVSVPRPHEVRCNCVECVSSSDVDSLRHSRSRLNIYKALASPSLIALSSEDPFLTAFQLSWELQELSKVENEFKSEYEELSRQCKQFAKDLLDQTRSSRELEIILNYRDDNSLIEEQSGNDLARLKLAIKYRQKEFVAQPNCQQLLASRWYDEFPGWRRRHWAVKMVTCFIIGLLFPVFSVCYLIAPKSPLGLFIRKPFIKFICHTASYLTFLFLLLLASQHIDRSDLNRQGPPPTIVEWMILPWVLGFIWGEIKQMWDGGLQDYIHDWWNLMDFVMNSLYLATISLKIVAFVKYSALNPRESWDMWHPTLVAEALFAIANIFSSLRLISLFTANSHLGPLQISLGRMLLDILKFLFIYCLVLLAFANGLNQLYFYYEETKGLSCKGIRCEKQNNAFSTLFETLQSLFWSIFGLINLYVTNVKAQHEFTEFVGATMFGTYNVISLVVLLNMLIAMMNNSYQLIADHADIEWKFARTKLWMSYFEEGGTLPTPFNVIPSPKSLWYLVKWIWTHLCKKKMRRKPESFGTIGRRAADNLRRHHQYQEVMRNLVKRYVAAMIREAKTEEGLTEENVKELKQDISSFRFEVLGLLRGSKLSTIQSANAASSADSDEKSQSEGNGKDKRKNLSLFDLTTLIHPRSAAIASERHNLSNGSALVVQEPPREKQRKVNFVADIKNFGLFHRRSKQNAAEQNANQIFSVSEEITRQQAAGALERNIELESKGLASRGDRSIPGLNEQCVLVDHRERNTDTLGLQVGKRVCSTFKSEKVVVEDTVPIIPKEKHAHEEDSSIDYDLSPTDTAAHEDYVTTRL
The assay can be described thus: mouse TRPC4 channel activators, dose response, cell-based, HEK293 TRPC4/mu-opioid, Fluo-4 calcium (AID 434937). Format: functional.

A further assay relates to HeLa. The assay is described as follows: HeLa cell cytotoxicity, dose response, cytotoxicity control, 24 h, cherry-picked samples (AID 504726).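 Note: potency for cytotoxicity as loss of luminescence signal.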 Format: functional, cell-based. To be noted: Homo sapiens.
The next assay addresses Trypsin (Sus scrofa, UniProt P00761). The assay is described as follows: porcine trypsin inhibitors, dose response, selectivity assay for Rce1 protease inhibitor project, biochemical, quenched peptide fluorescence, cherry-pick (AID 488789).
The next assay has as its target T3, CAAX prenyl protease 2 (Homo sapiens, UniProt Q9Y256).
T3 sequence (Q9Y256 whole entry): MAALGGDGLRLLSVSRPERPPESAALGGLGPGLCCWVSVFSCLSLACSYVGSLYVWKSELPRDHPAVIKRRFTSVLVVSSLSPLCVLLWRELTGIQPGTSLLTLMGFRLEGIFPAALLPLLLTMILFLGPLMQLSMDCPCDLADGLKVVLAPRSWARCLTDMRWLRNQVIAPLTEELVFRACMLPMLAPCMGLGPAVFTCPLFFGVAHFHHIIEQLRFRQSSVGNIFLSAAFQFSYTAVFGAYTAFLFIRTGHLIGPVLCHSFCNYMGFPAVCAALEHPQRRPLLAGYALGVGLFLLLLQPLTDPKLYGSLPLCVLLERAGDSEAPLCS
The assay can be described thus: human Rce1 protease inhibitors, dose response, biochemical, yeast membranes, quenched-peptide fluorescence, cherry-pick (AID 588849).

A short description of assay [4]: inhibitors of firefly luciferase expression or activity, dose response, H4 neuroglioma cells, luminescence (AID 1990). Format: functional, cell-based.
The nature of assay [5]: luciferase reporter signal reduction – luminescence, H4-C neuroglioblastoma cells, dose response (AID 2458).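 Note: H4 neuroglioblastoma cells stably carrying a luciferase reporter gene fusion.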 Format: functional, cell-based. Background: In a reporter assay the amount or activity of a reporter protein is the signal.
Assay [6] concerns BJ. The assay is described as follows: cytotoxicity toward BJ-TERT fibroblasts, dose response, cell-based, RAS-independent, luminescence (AID 1933). The format is functional. To be noted: Homo sapiens.
Assay [7] addresses T4, Luciferin 4-monooxygenase (Photinus pyralis, UniProt P08659). The assay can be described thus: Counter Screen for Luciferase-based Assay Positives. [Related pubchem assays: 620, 618, 411 ]. In general terms: Counterscreens check selectivity or assay interference.
Assay [8] concerns HEK293. The assay is described as follows: PMA/Ionomycin induced NF-kB luciferase assay in 293- NF-kB-Luc stable cells. [Related pubchem assays: 1299, 1270, 1295, 1375, 1287, 1281, 1293, 1291, 1289, 1280, 465, 1364, 1282, 1372, 1365, 1370, 1367, 1366, 1269, 1373, 1292, 1290, 1302, 1371, 1283, 1271, 1294, 1374, 1368, 1369 ]. The format is functional, cell-based. As to conditions: Homo sapiens.

Assay [9] addresses T4, Luciferin 4-monooxygenase. The assay can be described thus: In vitro luciferase assay using purified luciferase. [Related pubchem assays: 1299, 1270, 1295, 1375, 1287, 1281, 1293, 1291, 1289, 1280, 465, 1364, 1282, 1372, 1365, 1370, 1367, 1366, 1266, 1373, 1292, 1290, 1302, 1371, 1283, 1271, 1294, 1374, 1368, 1369 ].
The next assay is described as follows: cells. Format: functional, cell-based.
Assay [10] in a line: inhibitors of SNCA 5'UTR-driven reporter translation, confirmation, H4 neuroglioma cells, luminescence (AID 1988). Format: functional, cell-based.
Assay [11] has as its target T4, Luciferin 4-monooxygenase. The assay is described as follows: firefly luciferase enzyme inhibitors, dose response, biochemical, luminescence (AID 1891).
Assay [12] is described as follows: Luminescence Cell-Based Dose Confirmation HTS to Identify Inhibitors of Platelet Dense Granule Release. [Related pubchem assays: 1663 (Primary HTS), 1678 (Summary of Project)]. The format is functional.
In a further assay the test system is HT-1080. The assay can be described thus: cytotoxicity in HT1080 fibrosarcoma cells, cell-based, fluorescence readout (AID 620). Format: functional. To be noted: Homo sapiens.
Assay [13] has as its system HEK293. The assay can be described thus: Cytotoxicity assay in HEK293 cells. [Related pubchem assays (depositor defined):AID1266, AID1269, AID1270, AID1271, AID1280, AID1281, AID1282, AID1283, AID1287, AID1289, AID1290, AID1291, AID1292, AID1293, AID1294, AID1295, AID1299, AID1302, AID1364, AID1365, AID1366, AID1367, AID1369, AID1370, AID1371, AID1372, AID1373, AID1374, AID1375, AID1384 …. The format is functional, cell-based. As to conditions: Homo sapiens.

Assay [14] has as its system BJ. The assay can be described thus: cytotoxicity toward BJ-TERT-LT-ST fibroblasts, dose response, cell-based, RAS-independent, luminescence (AID 1935).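 Note: BJ fibroblasts immortalized with TERT plus LT and ST oncogenes.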 Format: functional. As to conditions: Homo sapiens.
Assay [15] can be described thus: cytotoxicity toward DRD oncogenic fibroblasts, dose response, cell-based, non-viral oncogenic, luminescence (AID 1934). The format is functional. As to conditions: Homo sapiens.
Assay [16] has as its target Mitogen-activated protein kinase 10 (Homo sapiens, UniProt P53779). The assay is described as follows: Dose response biochemical screening assay for inhibitors of c-Jun N-Terminal Kinase 3 (JNK3). [Related pubchem assays: 746 ].
Assay [17] in a line: inhibitors of SNCA 5'UTR-driven translation, confirmation, luminescence, H4 neuroglioblastoma cells, dose confirmation (AID 2454).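 Note: H4 neuroglioblastoma cells carrying an alpha-synuclein 5'UTR luciferase reporter; potency for inhibition of the luciferase signal.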 Format: functional, cell-based.
Assay [18] in a line: cytotoxicity in HEK-293T cells, dose response, cytotoxicity control for TCR NF-kB inhibitor project, luminescence, T-cell screen hits (AID 489026).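 Note: cells exposed to compound about 14 hours before the viability readout.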 Format: functional, cell-based.
Assay [19] relates to BJ. The assay is described as follows: cytotoxicity toward Ras-transformed BJeLR fibroblasts, dose response, cell-based, alamar blue fluorescence, cherrypicked samples (AID 2631).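 Note: confirmatory dose-response assay in RAS-dependent BJ fibroblasts engineered with TERT, LT and ST, with cytotoxicity read by fluorescence.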 To be noted: Homo sapiens. The format is functional. Background: The colour change of resazurin is a common sign of viable cells or microbes.

The source made the active and inactive calls. Cut-off read from the data, not from the text of the source, for most assays here: actives have a measured EC50 and inactives only a lower limit.

T4 sequence (P08659 whole entry): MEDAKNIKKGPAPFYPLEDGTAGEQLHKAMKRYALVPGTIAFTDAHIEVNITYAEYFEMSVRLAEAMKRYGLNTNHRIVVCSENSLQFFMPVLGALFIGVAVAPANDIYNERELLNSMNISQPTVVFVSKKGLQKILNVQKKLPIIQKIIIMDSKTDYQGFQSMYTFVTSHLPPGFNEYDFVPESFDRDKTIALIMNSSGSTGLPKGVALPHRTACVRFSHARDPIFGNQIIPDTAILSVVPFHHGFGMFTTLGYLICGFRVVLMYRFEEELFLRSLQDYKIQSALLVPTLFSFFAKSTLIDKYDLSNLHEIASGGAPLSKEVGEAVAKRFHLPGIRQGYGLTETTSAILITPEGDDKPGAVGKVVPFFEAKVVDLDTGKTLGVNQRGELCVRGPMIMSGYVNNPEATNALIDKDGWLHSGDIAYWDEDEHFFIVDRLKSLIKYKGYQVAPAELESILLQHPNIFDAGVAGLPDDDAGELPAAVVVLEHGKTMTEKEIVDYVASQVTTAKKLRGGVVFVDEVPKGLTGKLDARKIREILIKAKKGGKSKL
Chain of Melanin-concentrating hormone receptor 1 (Q99705 whole entry): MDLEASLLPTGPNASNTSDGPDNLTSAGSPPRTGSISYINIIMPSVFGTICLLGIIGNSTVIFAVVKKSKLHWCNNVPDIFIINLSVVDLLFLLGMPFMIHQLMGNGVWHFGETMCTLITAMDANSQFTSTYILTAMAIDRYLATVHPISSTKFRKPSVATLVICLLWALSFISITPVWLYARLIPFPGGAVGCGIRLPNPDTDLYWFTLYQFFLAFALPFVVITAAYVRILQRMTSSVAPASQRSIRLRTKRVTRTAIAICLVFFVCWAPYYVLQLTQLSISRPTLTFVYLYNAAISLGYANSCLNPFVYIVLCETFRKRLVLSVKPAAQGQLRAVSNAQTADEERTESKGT
Chain of Trypsin (P00761 whole entry): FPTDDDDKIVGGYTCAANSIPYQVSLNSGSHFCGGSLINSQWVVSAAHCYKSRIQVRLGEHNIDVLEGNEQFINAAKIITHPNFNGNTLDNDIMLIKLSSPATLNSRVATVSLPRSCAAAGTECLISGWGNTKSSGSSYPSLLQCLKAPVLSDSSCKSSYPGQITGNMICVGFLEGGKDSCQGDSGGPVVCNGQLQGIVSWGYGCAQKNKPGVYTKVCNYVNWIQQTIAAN
Chain of Mitogen-activated protein kinase 10 (P53779 whole entry): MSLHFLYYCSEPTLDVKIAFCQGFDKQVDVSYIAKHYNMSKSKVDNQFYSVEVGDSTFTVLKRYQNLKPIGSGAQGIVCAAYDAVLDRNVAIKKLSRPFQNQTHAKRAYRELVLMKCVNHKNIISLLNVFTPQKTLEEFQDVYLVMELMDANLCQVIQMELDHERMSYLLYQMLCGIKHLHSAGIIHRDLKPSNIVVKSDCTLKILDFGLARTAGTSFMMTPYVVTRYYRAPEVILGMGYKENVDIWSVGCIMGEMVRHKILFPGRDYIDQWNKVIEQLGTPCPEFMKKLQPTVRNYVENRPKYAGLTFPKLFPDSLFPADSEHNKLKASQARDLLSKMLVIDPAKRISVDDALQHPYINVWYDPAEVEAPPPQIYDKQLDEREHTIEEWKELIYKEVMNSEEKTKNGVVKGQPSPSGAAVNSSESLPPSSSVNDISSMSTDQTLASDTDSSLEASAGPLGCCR

For `COc1ccccc1N1CCN(C(CNC(=O)c2cccc(Cl)c2)c2cccnc2)CC1` (stereo not given), the IC50 (in general, the point on the concentration scale where inhibition reaches its midpoint) in the assay with Staphylococcus aureus is 0.457 µM (active).

In the case of `CC(NCCC1(Cc2ccccc2Cl)CCOC(C)(C)C1)c1cccs1` (stereo not given), the values for the half-inhibitory concentration (IC50) in assay [1] and in assay [2] were 12.7 µM (not active) and 13.3 µM (not active), respectively. In assay [3], the EC50 (as a rule, the concentration needed to bring the measured effect to its halfway point) is 5.31 µM (active).

For the molecule `COc1cccc2[nH]c(C(=O)NC(C)c3ccccc3)cc12` (stereo not given), the values for the AC50 in the assay on HeLa, at Trypsin and on CAAX prenyl protease 2 were 182 µM (active), 11.2 µM (active) and 12.1 µM (active), respectively.

On to `CCCN1C=CC(=C2C(=O)c3ccccc3C2=O)C=C1`, for which the EC50 in [4] was < 0.195 µM (active); in assay [5], 0.127 µM (active); with BJ [6], 6.69 µM (active); in [7], 0.98 µM (active); in the assay with HEK293 [8], 0.774 µM (active); in assay [9], 1.09 µM (active). Besides, the EC50 in “cells” is 0.135 µM (active); in [10] it was < 0.1 µM (active); in assay [11] it was 0.719 µM (active); in assay [12], 7.02 µM (active); in the assay on HT-1080, > 50 µM (not active); in the assay with HEK293 [13], 0.589 µM (active). For the same molecule, the EC50 with BJ [14] was 18.2 µM (active); in assay [15], 6.78 µM (active); in assay [17], 0.139 µM (active); in the assay on BJ [19] it was > 133 µM (inactive). Also, the IC50 in [16] was 9.84 µM (active); in assay [18], > 80 µM (inactive).
